Experiments:
[1] = system: human primary macrophages; experiment: Northern blot of s-RNYs in human primary macrophages; format: cell-based; details: data not shown
[2] = system: bone marrow-derived macrophages (BMDMs); experiment: s-RNY expression in stimulated BMDMs, stem-loop quantitative RT-PCR; format: cell-based, mouse; details: in combination with thapsigargin (ER stress)
Experimental: Bone marrow cells were collected from femurs and tibias of ten-week-old male C57BL/6J mice by flushing with sterile medium as previously described (T. Ruggiero, M. et al (2009) FASEB J 23:2898-2908). To differentiate into macrophages, bone marrow cells (10^6) were plated in 10-cm plates in 7 ml of BMDM medium (DMEM supplemented with 20% low-endotoxin fetal bovine serum, 30% L929-cell conditioned medium, 1% I-glutamine, 1% Pen/Strep, 0.5% Na pyruvate, and 0.1% β-mercaptoethanol), and fed with 2.5 ml of fresh medium every 2 days for 7 days. Human primary macrophages were prepared from peripheral blood monocytes obtained from healthy donors (Jacquel, A., et al. (2012). Blood 119, 4527-4531) in agreement with the French legislation on human biomedical research. All participants provided written informed consent attesting they had received all the information they needed about the study and they agreed in accordance with appropriate national regulations.
RNA expression by quantitative RT-PCR was carried out by using standard procedures. Briefly, for mRNA, total RNA was isolated from cells using Trizol and cDNA was synthesized with a random hexonucleotides using Superscript III (Invitrogen). For s-RNYs detection by quantitative RT-PCR a stem-loop quantitative RT-PCR method was used according to Chen et al. (Chen, C., et al. (2005). Nucleic acids research 33, e179). Briefly, total RNA was isolated from cells, tissue, or immunoprecipitation using Trizol (Invitrogen) according to the manufacturer's instructions. RNA extraction from extracellular medium, blood plasma, and serum was performed as previously described (Turchinovich, A., et al (2011). Nucleic acids research 39, 7223-7233). Briefly, 1.2 ml of Trizol LS were added to 0.4 ml of blood plasma, serum or media. Then (i) 5 pg of synthetic miRNA-39 from Caenorhabditis elegans (cel-miR-39) were added as a spike-in control for purification efficiency; (ii) 1.2 μl of glycogen (10 mg/ml) were added to enhance the efficiency of RNA column binding. Purification of extracted total RNA was performed with miRNeasy columns (Qiagen) according to the manufacturer's instructions. RNA was eluted in 30 μl of RNase-free water. cDNA was synthesized using a hairpin long oligonucleotide. This method allows the detection of the s-RNYs derived from only the 5′ end of the precursor by quantitative RT-PCR analysis, namely the s-RNY1-5p and s-RNY3-5p from mouse and s-RNY1-5p, s-RNY3-5p, and s-RNY4-5p from human. Quantitative RT-PCRs using Sybr Green and TaqMan (Invitrogen) for cel-miR-39 were performed on a StepONE system (Applied Biosystem). The primer sequences are detailed in Table 1. […]

[3] = system: bone marrow-derived macrophages (BMDMs); experiment: as above; format: cell-based, mouse; details: for s-RNY expression: stimulus given alone
[4] = system: s-RNY1-3p binding sites (BS) from KFL2 mRNA sequence in NIH-3T3 cells; experiment: Luciferase reporter assay with s-RNY1-3p binding sites from KLF2 mRNA; format: cell-based; details: PA treatment, FIG. 12C
Text: FIG. 12: (A) RNA duplex expected to result from base pairing of KFL2 mRNA with s-RNY1-3p. A-U and G-C base pairs are represented by solid lines; G-U wobble base pairs are represented by dotted lines, shown herein as SEQ ID NOS 58 and 59, respectively. (B) The sequence of the predicted target site of KFL2 mRNA from the indicated species, shown herein as SEQ ID NOS 60-63, respectively. The s-RNY1-3p seed complementary sequence is enclosed by a black box. Nucleotide conservation across the species is indicated by asterisks. (C) Relative luciferase activity of reporter constructs containing two either wt or mutant s-RNY1-3p binding sites (BS) from KFL2 mRNA sequence in NIH-3T3 cells transfected with either 2′-OMe-RNA antisense oligonucleotide to s-RNY1-3p or control. Cells were left unstimulated or stimulated with 0.25 mM of PA for 18 hr. The data were normalized using Renilla activity. Data are presented as mean and s.d. (n=4). Student's t-test: **P<0.01.
NIH-3T3 cells (80% confluence in 96-well plates) were transfected with Lipofectamine 2000® according to the manufacturer's instructions. Luciferase reporter assay was performed as previously described (Repetto, E., et al. (2012). PLoS genetics 8, e1002823).

BMDMs [5] = experiment: Apoptosis assay in BMDMs (annexin V / Dapi, flow cytometry); format: cell-based, mouse; details: FIGS. 13A and 13B
Experimental: FIG. 13: Apoptotic data by fluorocytometry for BMDMs overexpressing s-RNYs, transfected with either 2′-OMe-RNA antisense oligonucleotides to s-RNYs or control. BMDMs were stimulated with 0.25 mM of PA for 18 hr (A), 0.25 μM thapsigargin (Tg) in combination with […] of oxLDL for 28 hr (B), or left unstimulated (C). Percentage of apoptotic and necrotic cells was determined by staining with Dapi and annexin […]. Data are presented as mean and s.d. (n=3). Apoptosis was assayed in BMDMs by staining with Alexa 488-conjugated annexin V and Dapi as previously described (Jacquel, A., et al., 2012. Blood 119(19): 4527-4531). The number of annexin V- and Dapi-positive cells was counted and expressed as a percent of the total number of cells from duplicate wells.

p38, NF-κB, JNK = experiment: p38, NF-κB and JNK signaling activation in BMDMs; format: cell-based, mouse; details: time course, data not shown
Experimental: BMDMs and NIH-3T3 cells (ATCC) were transiently transfected for 48 hr with Lipofectamine 2000 (Invitrogen) according to the manufacturer's instructions. siRNAs were transfected at the final concentration of 24 nM, while 2′-OMe-RNA antisense oligonucleotides to s-RNYs (Eurogentec) were transfected at the final concentration of 100 nM. When required, cell lysates were incubated at room temperature with RNase A (10 mg/ml, Ambion) for 30 min. Three-hundred micrograms of protein was immunoprecipitated with Protein A-Dynabeads (Invitrogen)-coupled antibodies for 16 hr at 4° C. with rotation. Immunoprecipitates were washed four times with lysis buffer and resuspended in SDS protein loading buffer. Proteins were subjected to SDS-PAGE, electroblotted onto PVDF membranes, and probed with different antibodies as indicated.
Recombinant Ago2 and hnRNP A1 were purchased from Sino Biological Inc. and CliniSciences, respectively, while recombinant KSRP was a gift from Dr. R. Gherzi. Mouse monoclonal anti-hnRNP A1 (4B10), mouse monoclonal anti-c-Myc (9E10), goat anti-actin (1-19), and IκBα (H-4) antibodies were purchased from SantaCruz. Rabbit anti-La/SSB and anti-Ro60 (TROVE2) antibodies were purchased from GmbH. Anti-Ago2 antibody was purchased from Wako Chemicals while rabbit anti-KLF2 and anti-NOS2A antibodies were from Millipore. Anti-KSRP antibody was a gift from Dr. R. Gherzi. […]

BMDMs [6] = experiment: Quantitative RT-PCR of s-RNYs from the medium of BMDMs; format: cell-based, mouse; details: 0.25 mM PA 18 hr, FIG. 14B
Experimental: FIG. 14: (A) Quantitative RT-PCR analysis of the indicated s-RNYs in BMDMs incubated with 0.25 mM of PA the indicated time. The data were normalized by U2 snRNA. (B) Quantitative RT-PCR analysis of the indicated s-RNYs from the medium of BMDMs. Cells were left unstimulated or incubated with 0.25 mM PA for 18 hr. Data were normalized by using the synthetic non-mammalian cel-miR-39, which was added to the samples before the RNA extraction. Data are presented as mean and s.d. (n=8).
(§1) RNA expression by quantitative RT-PCR was carried out by using standard procedures. Briefly, for mRNA, total RNA was isolated from cells using Trizol and cDNA was synthesized with a random hexonucleotides using Superscript III (Invitrogen). For s-RNYs detection by quantitative RT-PCR a stem-loop quantitative RT-PCR method was used according to Chen et al. (Chen, C., et al. (2005). Nucleic acids research 33, e179). Briefly, total RNA was isolated from cells, tissue, or immunoprecipitation using Trizol (Invitrogen) according to the manufacturer's instructions. […] This method allows the detection of the s-RNYs derived from only the 5′ end of the precursor by quantitative RT-PCR analysis, namely the s-RNY1-5p and s-RNY3-5p from mouse and s-RNY1-5p, s-RNY3-5p, and s-RNY4-5p from human. Quantitative RT-PCRs using Sybr Green and TaqMan (Invitrogen) for cel-miR-39 were performed on a StepONE system (Applied Biosystem). […]

[7] = system: potential s-RNYs-target mRNAs; experiment: Quantitative RT-PCR of potential s-RNYs-target mRNAs in PA-treated BMDMs; format: cell-based, mouse; details: of 32 mRNAs (about 62%), FIG. 11
Experimental: FIG. 11: Quantitative RT-PCR analysis of the potential s-RNYs-target mRNAs in BMDMs transfected with siAgo2, 2′-OMe-RNA antisense oligonucleotides (AS) to s-RNYs, or control. BMDMs were left unstimulated (black column) or stimulated with 0.25 mM of PA for 18 hr, and total RNA was isolated and analyzed. Data were normalized by U2 snRNA and are presented as mean and s.d. (n=6).
BMDMs and NIH-3T3 cells (ATCC) were transiently transfected for 48 hr with Lipofectamine 2000 (Invitrogen) according to the manufacturer's instructions. siRNAs were transfected at the final concentration of 24 nM, while 2′-OMe-RNA antisense oligonucleotides to s-RNYs (Eurogentec) were transfected at the final concentration of 100 nM. […]
as §1, with “Briefly, for mRNA, total RNA was isolated from cells using Trizol and cDNA was synthesized with a random hexonucleotides using Superscript III (Invitrogen).” left out, “e179).” for “e179). Briefly, total RNA was isolated from cells, tissue, or immunoprecipitation using Trizol (Invitrogen) according to the manufacturer's instructions.”

Molecule	s-RNY expression [2]	s-RNY expression [3]	other results
CN[C@@H]1C[C@H]2O[C@@](C)([C@@H]1OC)n1c3ccccc3c3c4c(c5c6ccccc6n2c5c31)C(=O)NC4 [STS, staurosporine]	–	–	expression of s-RNYs (s-RNY1-5p, s-RNY1-3p, s-RNY3-5p and s-RNY4-5p) [1]: induced
CCCCC/C=C\C/C=C\CCCCCCCC(=O)O [linoleic acid]	did not induce	did not induce	–
CCCCCCCCCCCCCCCC(=O)O [PA, palmitic acid]	increased markedly	induced	luciferase activity of the mutant reporter construct [4]: not affected; luciferase activity of the reporter construct containing the wt sequence [4]: repressed; apoptosis in macrophages treated with pro-atherogenic stimuli (BMDMs [5]): apoptosis activation; NF-κB activation (IκBα degradation) (p38, NF-κB, JNK; after 9 hr of treatment): enhanced; p38 activation (p38 phosphorylation) (p38, NF-κB, JNK; starting by 9 hr): enhanced; enrichment of s-RNYs in extracellular environment compared to control (BMDMs [6]): ~100 fold; time by which s-RNY expression was induced ([3]; 0.25 mM PA, FIG. 14A): ≤ 9 h
CCCCCCCCCCCCCCCCCC(=O)O [stearic acid]	increased markedly	induced	–
5′-GUUGUAUUGUUUAGCGAUU-3′ (listed as RNA, chemistry not given here) [siAgo2]	–	–	potential target mRNAs whose expression was Ago2 and s-RNYs dependent [7]: at least 20/32
CCCCCCCC/C=C\CCCCCCCC(=O)O [oleic acid]	did not induce	did not induce	–
C/C=C(/C)C(=O)O[C@H]1C(C)=C2[C@H]([C@@H]1OC(=O)CCCCCCC)[C@@](C)(OC(C)=O)C[C@H](OC(=O)CCC)[C@@]1(O)[C@H]2OC(=O)[C@@]1(C)O [thapsigargin]	–	no effect	–
